In patent US20140256638A1, “PEPTOID NEUTRALIZING AGENTS” (The Regents of the University of California, priority 2013, published 2014):

Tests used:
[1] = Coatest heparin in vitro assay; cited from earlier work
proteases = settings: physiological conditions; cited from earlier work
[2] = Isothermal Titration Calorimetry (ITC) of peptoid-heparin binding; settings: for TΔS: calculated from binding constant and ΔH; for ΔS: calculated from ΔG and ΔH; for ΔG: calculated from ΔG=−RTlnKb
Method: For Table 3, binding constants and other thermodynamic parameters were determined for the chiral 12-mer analogs by ITC. The S12mer data represents 3 trials, and the R12mer represents 2 trials. Values for the parameters Kb, AH and N are obtained by fitting the titration curves. AG is calculated from ΔG=−RTlnKb and ΔS is calculated from […].
Isothermal Titration Calorimetry (“ITC”) was used to determine directly ΔH, the binding constant and stoichiometry, and ΔS was then calculated from the binding constant and ΔH for the binding reaction between heparin and the peptoids produced in this study. In a typical ITC experiment, peptoid in buffer solution was placed in the sample cell and an equivalent quantity of the same buffer solution was placed in the reference cell. Heparin in buffer solution was placed in the titration syringe. Heparin titrant was added to the sample cell in 10 μL aliquots with 210 sec. between aliquots.
FIG. 11 presents the isotherm for the endothermic reaction. The resulting integrated titration curve is given in FIG. 12 for a reaction between 0.20 mM peptoid in the sample cell and 0.25 mM heparin in the titration syringe.

[3] = Heparin Affinity Chromatography (HAC); assay type: binding; settings: Table 4; heparin affinity column, gradient 0 to 1 M NaCl in pH 7.2, 50 mM sodium phosphate over 60 min, 0.65 mL/min
Method: The relative affinities of the peptoids in Table 2 for heparin were determined by heparin affinity chromatography (“HAC”). Peptoid solutions, typically 0.2 mM, were eluted by gradient elution; mobile phase A consisted of pH 7.2, 50 mM sodium phosphate buffer and mobile phase B consisted of the same buffer but with 1 M NaCl added. The flow rate was 0.65 mL/min and the gradient began with 100% mobile phase A and 0% mobile phase B, and ended at 60 min with 0% mobile phase A and 100% B although most of the peptoid runs were complete within 30 min or less.

[4] = Table 4, ITC, heparin titrated into peptoid in buffer
[5] = Table 3, ITC, S12mer 3 trials, R12mer 2 trials

Substance	ΔH ([2]; Table 4, ITC) [kcal/mol]	Kd [2, 4] [µM]	TΔS ([2]; Table 4, ITC)	HAC r.t. [3] [min]	also measured
Ac-SRGKAKVKAKVKDQTK-NH2 (not fully specified; printed as Ac-SRGKAKVKAKVKDQTK-NH2) [L-HIPAP]	–	–	–	–	neutralizing heparin activity [1]: equally effective
Ac-SRGKAKVKAKVKDQTK-NH2 [D-HIPAP]	–	–	–	–	stability to proteases (proteases): more stable than L-HIPAP
Ac-SRGKAKVKAKVKDQTK-NH2 [L-HIPAP]	–	–	–	–	stability to proteases (proteases): more susceptible to degradation by proteases
H-[N(Arg)-N(Bu)-N(Spe)]2-NH2 [s6merG]	-2.862 ± 0.222	20.6 ± 0.8	2316 ± 32 cal/mol	13.5 ± 2.9	–
H-[N(Arg)-N(Bu)-N(Spe)]3-NH2 [s9merG]	-1.197 ± 0.071	4.76 ± 2.3	16.6 ± 1.7 cal/mol	20.8 ± 0.8	–
H-[N(Arg)-N(Bu)-N(Spe)]-NH2 [s3merG]	-0.6325 ± 0.0085	140 ± 11	2026.4 ± 159 cal/mol	3.8 ± 0.3	–
H-[N(Arg)-N(Et)-N(Spe)]3-NH2 [s9merEtG]	-2.176 ± 0.082	4.3 ± 2.2	3159 ± 115 cal/mol	21.5 ± 0.5	–
H-[N(Arg)-N(Pr)-N(Spe)]3-NH2 [s9merPrG]	-1.634 ± 0.043	5.6 ± 1.8	4639 ± 36 cal/mol	20.3 ± 0.6	–
H-[N(Cad)-N(Bu)-N(Spe)]3-NH2 [s9merCad]	2.381 ± 0.029	11.7 ± 0.1	8989 ± 15 cal/mol	16.3 ± 0.6	–
H-[N(Cad)G-N(Bu)-N(Spe)]3-NH2 [s9merCadG]	-0.2835 ± 0.027	5.5 ± 3.4	7500 ± 32 cal/mol	20.1 ± 0.5	–
H-[N(Lys)-N(Bu)-N(Spe)]3-NH2 [s9merLys]	3.305 ± 0.064	16.4 ± 11	10,000 ± 54 cal/mole	14.6 ± 0.2	–
H-[N(Lys)G-N(Bu)-N(Spe)]3-N2 [s9merLysG]	-0.6151 ± 0.135	5 ± 0.3	3948 ± 56 cal/mol	20.6 ± 0.2	–
H-[N(Orn)-N(All)-N(Spe)]3-NH2 [s9merAll]	-0.931 ± 0.074	8.3 ± 3.2	4627 ± 41 cal/mol	20 ± 2.0	–
H-[N(Orn)-N(Bu)-N(Rpe)]4-NH2 [r12mer]	1.278 ± 0.379	7.6 ± 4.2	5664 ± 2.5 cal/mol	18.5 ± 0.6	Kd [2, 5]: 7.57 µM; ΔH [2, 5]: 1.278 kcal/mol; ΔS ([2]; Table 3, ITC): 19.01 cal/mole ° C.; ΔG ([2]; Table 3, ITC): -6.956 kcal/mol
H-[N(Orn)-N(Bu)-N(Spe)]2-NH2 [s6mer]	0.565 ± 0.064	44 ± 5	7748 ± 880 cal/mol	9.61 ± 1.1	–
H-[N(Orn)-N(Bu)-N(Spe)]3-NH2 [s9mer]	0.814 ± 0.089	18.6 ± 3.2	7259 ± 45 cal/mol	14.1 ± 1.2	–
H-[N(Orn)-N(Bu)-N(Spe)]4-NH2 [s12merG]	-0.167 ± 0.038	3.4 ± 0.4	7682 ± 43 cal/mol	29.2 ± 1.0	–
H-[N(Orn)-N(Bu)-N(Spe)]4-NH2 [s12mer]	1.733 ± 0.047	4.11 ± 0.6	9097 ± 30 cal/mol	21.6 ± 0.6	relative binding affinity to heparin ([2]; ITC and HAC results, comparison in words): greater binding affinity; Kd [2, 5]: 4.11 µM; ΔH [2, 5]: 1.733 kcal/mol; ΔS ([2]; Table 3, ITC): 30.53 cal/mole ° C.; ΔG ([2]; Table 3, ITC): -6.309 kcal/mol
H-[N(Orn)-N(Bu)-N(Spe)]-NH2 [s3mer]	0.3867 ± 0.237	164 ± 32	5057 ± 35 cal/mol	3.0 ± 0.6	–
H-[N(Orn)-N(Bz)-N(Spe)]3-NH2 [s9merBz]	-0.545 ± 0.121	0.9 ± 0.4	2851 ± 1.4 cal/mol	29.3 ± 0.5	–
H-[N(Orn)-N(Et)-N(Spe)]3-NH2 [s9merEt]	0.8223 ± 0.034	10.9 ± 0.7	5140 ± 37 cal/mol	16.5 ± 0.5	–
H-[N(Orn)-N(Me)-N(Spe)]3-NH2 [s9merMe]	1.654 ± 0.011	8.3 ± 2	3161 ± 76 cal/mol	18.1 ± 0.5	–
H-[N(Orn)-N(Orn)-N(Spe)]4-NH2 [s9merOrnOrn]	-5.253 ± 0.105	0.14 ± 0.004	3992 ± 383 cal/mol	38.5 ± 5.0	enthalpy of reaction (sign) ([2]; ITC with heparin): exothermic
H-[N(Orn)-N(Pr)-N(Spe)]3-NH2 [s9merPr]	3.555 ± 0.056	11.2 ± 0.7	1427 ± 2.6 cal/mol	16.5 ± 0.7	–
